Laboratory results published in paper PMC12128972, “TYRA-300, an FGFR3-selective inhibitor, promotes bone growth in two FGFR3-driven models of chondrodysplasia” (JCI Insight, 2025).
“And” between values parts separate entries of the source, which are not always exact repeats. Equal values may be shown once.

Legend:
[1] = system: lumbar vertebrae of Fgfr3^Y367C/+ mice; experiment: Fgfr3Y367C/+ mice: lumbar vertebrae and intervertebral discs (calipers, histology); type: in vivo, mouse; details: 1.2 mg/kg s.c. daily for 15 days
Description: Individuals with ACH frequently experience back pain and may undergo multiple spinal surgeries throughout their lives ([40]). Kyphosis and scoliosis are common with ACH and are also observed in the Fgfr3^Y367C/+ mouse model ([40]), and Fgfr3 is expressed in the intervertebral discs of Fgfr3^Y367C/+ mice ([28]). To determine how TYRA-300 affects the vertebrae and intervertebral discs, the spine was analyzed in the Fgfr3^Y367C/+ mice treated with TYRA-300 or vehicle.
(§1) Whole body x-ray images were taken of all animals by Faxitron specimen radiography MX-20 (Faxitron X-Ray LLC) following terminal sacrifice. The length of the L4–L6 lumbar vertebra segment was also measured for each animal using calipers, and the height of the L5 vertebral body was measured from Alcian blue/Sirius red images. Long bones and the skull were then excised, and their dimensions were measured using calipers (VWRi819-0013, VWR International). The transverse and sagittal diameters of the foramen magnum were also measured using calipers for the Fgfr3^Y367/+ model, and measured using the μCT images for the Fgfr3^N534K/+ model.
(§2) The right femur and lumbar vertebrae segment L4–L6 were collected and fixed in 4% paraformaldehyde, decalcified with ethylenediaminetetraacetic acid (EDTA) 0.5 M (pH 8) for 2 or 3 weeks, and embedded in paraffin. Serial paraffin sections of 5 μm were stained with hematoxylin, eosin, and Safranin O. For immunohistochemistry, sections were labeled with antibodies against collagen type X (BIOCYC ref. [1]-CO097-05-RUO, 1:100 dilution), collagen type I (Novotec, 20151, dilution 1:1,000), pERK (Cell Signaling, 4370S, dilution 1:1,000), and PCNA (Abcam, GR3195972-6, 1:500 dilution) using the Dako Envision Kit. Images were captured with an Olympus PD70-IX2-UCB microscope and CellSens software (Olympus Life Science Solutions). Cells were counted using ImageJ software (NIH, Laboratory for Optical Computational Instrumentation).

pERK1/2 = experiment: Fgfr3N534K/+ mice: histology and pERK1/2 immunohistochemistry of distal femur; type: in vivo, mouse; details: 1.8 mg/kg daily for 21 days
Description: To confirm the mechanistic effect of TYRA-300 within the growth plate of treated Fgfr3^N534K/+ mice, immunohistochemical analyses were performed on the distal femurs. In contrast to the ACH model, a larger SOC is visible in the femoral epiphysis of HCH mice ([42]), and the effect of TYRA-300 on SOC formation is not obvious. […] It is well established that the MAPK pathway is the canonical FGFR3 downstream signaling pathway. Here, we confirmed that this pathway is still activated at 24 days of age in the HCH growth plate through immunohistochemical staining of phosphorylated ERK1/2 (pERK), which was positive in hypertrophic chondrocytes (Figure 4G).
as §2, with “Images were captured with an Olympus PD70-IX2-UCB microscope and CellSens software (Olympus Life Science Solutions).” left out

[2] = system: lumbar vertebrae of Fgfr3^N534K/+ mice; experiment: Fgfr3N534K/+ mice: histology of lumbar vertebrae and intervertebral disc; type: in vivo, mouse; details: 1.8 mg/kg daily for 21 days
Source text: We also analyzed the lumbar vertebrae and intervertebral disc (Figure 5E).
as §2

[3] = system: foramen magnum of Fgfr3^N534K/+ mice; experiment: Fgfr3N534K/+ mice: microCT of foramen magnum, grade of synchondroses; type: in vivo, mouse; design: key to grade of synchondroses after treatment: I: border of synchondroses were completely separated; II: clear separation of synchondroses with some areas suspicious for bone bridging; III: synchondroses showing bony bridge between 2 borders; IV: completely fused synchondroses with remnants of margin (cartilage); V: completely fused synchondroses; source data of Figure 5C (sheet "5C"): grade of synchondroses: scale not given here
Description: Finally, to confirm the effects of TYRA-300 on the axial skeleton in Fgfr3^N534K/+ mice, μCT imaging of the foramen magnum was performed at the end of treatment.
as §1
The heads of all mice were isolated, and skin was stripped before being placed in 70% ethanol at 4°C. μCT images of the skulls were measured on the Skyscan-1272 (Bruker) with the following parameters: 10 μm resolution, 680 ms exposure, 70 kV, 142 μA, and 0.350° rotation step. The μCT data were analyzed using DataViewer and CTAn software (version 1.20.8) to perform postprocessing techniques in 3D. The nasio-occipital length and anteroposterior length of the skull were measured using 2D μCT images.

FGFR3 N540K = system: FGFR3 N540K; design: method as in PMID 39258897; details: cited from earlier work
[4] = system: femurs of Fgfr3^Y367C/+ mice; experiment: Fgfr3Y367C/+ mice: microCT of femurs (SOC bone volume, BMD, BV/TV); type: in vivo, mouse; details: 1.2 mg/kg s.c. daily for 15 days
Description: Finally, measurements of trabecular bone quality were performed using μCT imaging of the femurs (Supplemental Figure 2).
Femurs were placed in 70% ethanol at 4°C and measured on the Skyscan-1272 (Bruker) with the following parameters: 60 kV, 166 μA, 0.25 mm aluminum filter. Within the femurs, the trabecular parameters were obtained at 5 μm voxel resolution in a ROI (normalized to 7% of the femur length in size) beginning 255 μm proximal to the distal growth plate for controls, 25 μm for Fgfr3^Y367C/+ + vehicle, and 35 μm for Fgfr3^Y367C/+ + TYRA-300. The BMD and BV/TV of the metaphysis were measured using on a set of sections located within the secondary spongiosa under the growth plate. The measured volume was chosen to be proportional to the femur length (typically 630 μm for control animals and 310 μm for Fgfr3^Y367C/+ + vehicle and 415 μm for Fgfr3^Y367C/+ + TYRA-300.) Scan reconstruction was done using NRecon (v 1.7.4.6). Scan orientation was done using DataViewer (v 1.7.0.1). 3D Analysis for trabecular bone was performed using CT Analyzer (v 1.23.0.2).

[5] = 1.8 mg/kg daily for 21 days, microCT

C[C@@H](Oc1ccc2[nH]nc(-c3ccc(N4CC5(C4)CN(S(C)(=O)=O)C5)nc3)c2c1)c1c(Cl)cncc1Cl [TYRA-300]
height of the vertebral bodies vs vehicle [1]: increased the height of the vertebral bodies
increase in L4-L6 lumbar vertebrae segment length vs vehicle [1]: 23.49%
shape of the intervertebral disc [1]: decreasing the height and increasing the lateral width of the nucleus pulposus
overall architecture of the growth plate (H&E and collagen type X) (pERK1/2): did not demonstrate significant changes
pERK+ cells per ROI vs vehicle (pERK1/2; distal femur growth plate): significant decrease
shape of the intervertebral disc [2]: slightly modified the shape of the intervertebral disc
change in transverse diameter of the foramen magnum ([3]; 1.8 mg/kg daily for 21 days, data not shown): not a statistically significant change
increase in area of the foramen magnum vs vehicle [3, 5]: 7.51%
increase in sagittal diameter of the foramen magnum vs vehicle [3, 5]: 6.35%
grade of synchondroses after treatment ([3]; 1.8 mg/kg daily for 21 days, most mice, vehicle grade V): IV
source data of Figure 5C (sheet "5C"): grade of synchondroses ([3]; Fgfr3N534K/+ mice + TYRA-300, individual animal values): 5 and 4
inhibition of FGFR3 N540K relative to wild-type and G380R mutant proteins (FGFR3 N540K): lower inhibition
bone volume of the SOC (microCT) vs vehicle [4]: significant increase
increase in bone mineral density (BMD) vs vehicle ([4]; femoral metaphyses): 21.4%
increase in bone volume-to-tissue volume ratio (BV/TV) vs vehicle ([4]; femoral metaphyses): 73.3%
